Experimental data reported in patent publication US9387209B2, “Histone deacetylases (HDACs) inhibitors” (ANNJI PHARMACEUTICAL CO., LTD., priority 2012, dated 2016).
Like-named read-outs stand apart in the source and are kept apart here.

Tests used:
[1] = biological target: T1, human histone deacetylases (HDAC) 8 (Homo sapiens, UniProt Q9BY41); assay: HDAC enzymatic assay, HDAC8; assay type: biochemical
T1 sequence (Q9BY41 1-377): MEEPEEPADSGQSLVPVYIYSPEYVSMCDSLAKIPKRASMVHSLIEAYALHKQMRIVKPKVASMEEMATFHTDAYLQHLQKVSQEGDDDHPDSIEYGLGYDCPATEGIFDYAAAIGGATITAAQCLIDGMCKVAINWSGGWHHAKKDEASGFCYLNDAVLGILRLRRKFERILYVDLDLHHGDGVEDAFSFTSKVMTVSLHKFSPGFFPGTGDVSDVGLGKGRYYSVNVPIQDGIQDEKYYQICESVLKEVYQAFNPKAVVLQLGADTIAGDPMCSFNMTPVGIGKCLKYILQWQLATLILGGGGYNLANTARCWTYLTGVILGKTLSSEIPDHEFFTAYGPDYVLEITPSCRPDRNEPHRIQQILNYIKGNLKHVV

[2] = biological target: T2, human histone deacetylases (HDAC) 6 (Homo sapiens, UniProt Q9UBN7); assay: HDAC enzymatic assay, HDAC6; assay type: biochemical; settings: for selective inhibitions on HDAC6: HDAC6 versus other HDACs
T2 sequence (Q9UBN7 1-1215): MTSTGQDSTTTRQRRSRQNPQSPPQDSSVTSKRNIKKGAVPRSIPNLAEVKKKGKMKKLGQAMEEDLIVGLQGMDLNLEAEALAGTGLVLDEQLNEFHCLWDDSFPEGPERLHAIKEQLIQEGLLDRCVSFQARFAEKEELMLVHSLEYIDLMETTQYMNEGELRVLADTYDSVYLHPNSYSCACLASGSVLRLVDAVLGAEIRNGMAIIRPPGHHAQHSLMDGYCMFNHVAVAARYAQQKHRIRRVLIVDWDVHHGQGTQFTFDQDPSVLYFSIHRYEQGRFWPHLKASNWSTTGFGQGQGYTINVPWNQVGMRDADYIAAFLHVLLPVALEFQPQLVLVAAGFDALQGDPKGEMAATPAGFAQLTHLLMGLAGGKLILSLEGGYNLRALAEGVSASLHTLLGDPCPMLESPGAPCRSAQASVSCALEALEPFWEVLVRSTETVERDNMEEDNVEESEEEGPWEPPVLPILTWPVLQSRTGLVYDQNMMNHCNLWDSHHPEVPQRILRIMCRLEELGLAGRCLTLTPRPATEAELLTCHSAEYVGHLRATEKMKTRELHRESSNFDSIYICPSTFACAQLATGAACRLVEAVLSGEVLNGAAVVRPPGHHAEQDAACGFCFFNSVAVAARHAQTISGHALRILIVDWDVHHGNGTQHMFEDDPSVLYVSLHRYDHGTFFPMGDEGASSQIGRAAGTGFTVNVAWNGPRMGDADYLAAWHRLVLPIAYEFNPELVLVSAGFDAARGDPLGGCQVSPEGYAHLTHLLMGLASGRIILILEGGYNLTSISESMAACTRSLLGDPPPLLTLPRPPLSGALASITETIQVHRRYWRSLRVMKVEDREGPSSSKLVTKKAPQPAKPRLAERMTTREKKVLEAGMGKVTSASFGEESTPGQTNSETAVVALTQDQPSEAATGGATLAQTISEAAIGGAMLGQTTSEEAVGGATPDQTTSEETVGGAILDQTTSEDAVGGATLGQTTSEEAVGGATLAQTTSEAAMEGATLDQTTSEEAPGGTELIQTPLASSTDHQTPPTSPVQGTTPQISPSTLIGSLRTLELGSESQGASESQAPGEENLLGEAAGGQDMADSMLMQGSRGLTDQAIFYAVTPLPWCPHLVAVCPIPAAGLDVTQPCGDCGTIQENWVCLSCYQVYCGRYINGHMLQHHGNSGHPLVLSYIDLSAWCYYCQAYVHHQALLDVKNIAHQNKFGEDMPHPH

PC 12 cells [3] = assay: Neurite outgrowth assay, PC 12; assay type: cell-based; settings: Rattus norvegicus
SH-SY5Y cells [4] = assay: Neurite outgrowth assay, SH-SY5Y; assay type: cell-based; settings: Homo sapiens
SH-SY5Y cells [5] = assay: Neurite synaptic uptake activity (FM1-43), SH-SY5Y; assay type: cell-based; settings: Homo sapiens, NGF positive control taken as 100%, read-out: uptake of dye FM1-43 EC50
Protocol: (§1) Neurite Synaptic Uptake Activity Analysis.
(§2) The effects of compounds on the neuronal synapse uptake of fluorescent indicator FM1-43 were assayed. The uptake of the dye indicated the synaptic function of the neurites. PC 12 and SH-SY5Y cells were used. Cells in experimental groups were treated with a test compound and FM1-43; Cells in positive control were treated with NGF and FM1-43; Cells in negative control were treated with a vehicle and FM1-43. The fluorescence in the positive control were taken as 100%.

PC 12 cells [6] = assay: Neurite synaptic uptake activity (FM1-43), PC 12; assay type: cell-based; settings: Rattus norvegicus, NGF positive control taken as 100%, read-out: uptake of dye FM1-43 EC50
Protocol: as §1, §2

[7] = biological target: human histone deacetylases (HDAC) 1 (Homo sapiens, UniProt Q13547); assay: HDAC enzymatic assay, HDAC1; assay type: biochemical; settings: read-out: IC50 HDAC1 (grading)
Sequence of human histone deacetylases (HDAC) 1 (Q13547 whole entry): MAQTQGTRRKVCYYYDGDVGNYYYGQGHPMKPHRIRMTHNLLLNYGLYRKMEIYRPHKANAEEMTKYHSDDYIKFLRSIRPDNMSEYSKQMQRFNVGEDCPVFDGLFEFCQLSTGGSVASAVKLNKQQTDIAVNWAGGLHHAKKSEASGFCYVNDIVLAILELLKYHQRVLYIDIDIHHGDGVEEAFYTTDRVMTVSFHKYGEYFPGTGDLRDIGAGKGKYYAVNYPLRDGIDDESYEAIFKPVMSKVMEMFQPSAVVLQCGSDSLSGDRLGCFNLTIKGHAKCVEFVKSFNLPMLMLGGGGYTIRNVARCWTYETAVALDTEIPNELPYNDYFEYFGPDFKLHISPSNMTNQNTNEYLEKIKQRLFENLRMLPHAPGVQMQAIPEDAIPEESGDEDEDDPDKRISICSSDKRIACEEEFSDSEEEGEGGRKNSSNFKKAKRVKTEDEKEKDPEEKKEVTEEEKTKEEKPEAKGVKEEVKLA

[8] = MTT or SRB assay for cytotoxicity, A549; assay type: cell-based; settings: human, A549 cells, read-out: cytotoxicity IC50 (grading) A549
Protocol: (§3) MTT or SRB Assays for Cytotoxicities of HDAC Inhibitors.
(§4) These compounds were assayed for cytotoxicities to the following cells: A549 cells (adenocarcinomic human alveolar basal epithelial cells), HCT-116 cells (human colon carcinoma cells). PANC-1 cells (human pancreatic carcinoma, epithelial-like cell line) and HepG2 cells (human liver hepatocellular carcinoma cell line), neuronal cells PC12 (rat pheochromocytoma cell line) and SH-SY5Y (human neuroblastoma cell line). MTT (3-[4,5-dimethylthiazol-2-yl]2,5-diphenyl-tetrazolium bromide) reduction was collaborated by using trypan blue exclusion assay.

[9] = MTT or SRB assay for cytotoxicity, HepG2; assay type: cell-based; settings: human, HepG2 cells, read-out: cytotoxicity IC50 (grading) HepG2
Protocol: as §3, §4

[10] = MTT or SRB assay for cytotoxicity, PANC1; assay type: cell-based; settings: human, PANC-1 cells, read-out: cytotoxicity IC50 (grading) PANC1
Protocol: as §3, §4

[11] = MTT or SRB assay for cytotoxicity, HCT116; assay type: cell-based; settings: human, HCT-116 cells, read-out: cytotoxicity IC50 (grading) HCT116
Protocol: as §3, §4

[12] = HDAC8, read-out: IC50 HDAC8 (grading)
[13] = HDAC6, read-out: IC50 HDAC6 (grading)

| Structure (SMILES) | IC50 [1, 12] [µM] | IC50 [2, 13] [µM] | selective inhibitions on HDAC6 [2] | EC50 (SH-SY5Y cells [4]) [µM] | EC50 (SH-SY5Y cells [5]) [µM] | EC50 (PC 12 cells [6]) [µM] | IC50 [7] [µM] | melting point | IC50 [1] [µM] | IC50 [2] [µM] | EC50 (PC 12 cells [3]) [µM] | IC50 [8] [µM] | IC50 [9] [µM] | IC50 [10] [µM] | IC50 [11] [µM] |
| --- | --- | --- | --- | --- | --- | --- | --- | --- | --- | --- | --- | --- | --- | --- | --- |
| Cc1nc2cc(/C=C/C(=O)NO)ccc2c(=O)n1-c1ccccc1 [Compound 1c, (2E)-3-(3,4-dihydro-2-methyl-4-oxo-3-phenylquinazolin-7-yl)-N-hydroxyacrylamide] |  |  |  |  |  |  |  |  | 1 to 10 | < 0.1 |  |  |  |  |  |
| CCc1nc2cc(/C=C/C(=O)NO)ccc2c(=O)n1CCCc1ccccc1 [Compound 1j, (2E)-3-(2-ethyl-3,4-dihydro-4-oxo-3-(3-phenylpropyl)quinazolin-7-yl)-N-hydroxyacrylamide] | 1 to 10 | < 0.1 | selective inhibitions on HDAC6 | 9.97 ± 1.17 | 9.97 ± 1.17 | 6.95 ± 0.82 | 1 to 10 | 189 to 191 °C |  |  | 6.95 ± 0.82 |  |  |  |  |
| O=C(/C=C/c1ccc2c(=O)n(CCc3ccccc3)c(C3CC3)nc2c1)NO [Compound 1k, (2E)-3-(2-cyclopropyl-3,4-dihydro-4-oxo-3-phenethylquinazolin-7-yl)-N-hydroxyacrylamide] |  | < 0.1 |  | > 30 | > 30 | 0.76 ± 0.69 | 0.1 to 1 | 204 to 206 °C (dec.) |  |  | 0.76 ± 0.69 |  |  |  |  |
| CC(C)c1nc2cc(/C=C/C(=O)NO)ccc2c(=O)n1CCc1ccccc1 [Compound 1l, (2E)-3-(3,4-dihydro-2-isopropyl-4-oxo-3-phenethylquinazolin-7-yl)-N-hydroxyacrylamide] |  | < 0.1 |  | 6.74 ± 0.78 | 6.74 ± 0.78 | 5.28 ± 0.51 | 0.1 to 1 | 173 to 174 °C (dec.) |  |  | 5.28 ± 0.51 |  |  |  |  |
| CCc1nc2cc(/C=C/C(=O)NO)c(F)cc2c(=O)n1CCc1ccccc1 [Compound 2a, (2E)-3-(2-ethyl-6-fluoro-3,4-dihydro-4-oxo-3-phenethylquinazolin-7-yl)-N-hydroxyacrylamide] | 1 to 10 | < 0.1 | selective inhibitions on HDAC6 |  |  | 1.66 ± 0.76 | 1 to 10 |  |  |  |  | 1 to 10 | 1 to 10 | 1 to 10 | 1 to 10 |
| CCc1nc2c(Cc3ccc(C(=O)NO)cc3)cccc2c(=O)n1CCc1ccccc1 [Compound 4c, 4-((2-ethyl-3,4-dihydro-4-oxo-3-phenethylquinazolin-8-yl)methyl)-N-hydroxybenzamide] |  |  |  |  |  | 5.34 ± 0.85 |  |  | 0.1 to 1 | 0.1 to 1 |  | ≥ 10 | 1 to 10 | ≥ 10 | ≥ 10 |

Continued, in another order:

| IC50 [1, 12] [µM] | IC50 [2, 13] [µM] | selective inhibitions on HDAC6 [2] | EC50 (SH-SY5Y cells [4]) [µM] | EC50 (SH-SY5Y cells [5]) [µM] | EC50 (PC 12 cells [6]) [µM] | IC50 [7] [µM] | melting point | Structure (SMILES) | IC50 [1] [µM] | IC50 [2] [µM] | EC50 (PC 12 cells [3]) [µM] | IC50 [8] [µM] | IC50 [9] [µM] | IC50 [10] [µM] | IC50 [11] [µM] |
| --- | --- | --- | --- | --- | --- | --- | --- | --- | --- | --- | --- | --- | --- | --- | --- |
| 1 to 10 | 0.1 to 1 |  | 7.63 ± 0.74 | 7.63 ± 0.74 | 10.7 ± 1.26 | > 10 |  | CCc1nc2cc(Cl)c(/C=C/C(=O)NO)cc2c(=O)n1CCc1ccccc1 [Compound 3b, (2E)-3-(7-chloro-2-ethyl-3,4-dihydro-4-oxo-3-phenethylquinazolin-6-yl)-N-hydroxyacrylamide] |  |  | 10.7 ± 1.26 | 1 to 10 | ≥ 10 | 0.1 to 1 | ≥ 10 |
| < 0.1 | < 0.1 | selective inhibitions on HDAC6 | 4.06 ± 0.58 | 4.06 ± 0.58 | 2.89 ± 0.45 | 1 to 10 |  | CCc1nc2ccc(Cc3ccc(C(=O)NO)cc3)cc2c(=O)n1CCc1ccccc1 [Compound 4a, 4-((2-ethyl-3,4-dihydro-4-oxo-3-phenethylquinazolin-6-yl)methyl)-N-hydroxybenzamide] |  |  | 2.89 ± 0.45 |  |  |  |  |
|  |  |  |  |  |  |  | 202 to 204 °C (dec.) | CCc1nc2c(-c3ccc(C(=O)NO)cc3)cccc2c(=O)n1CCc1ccccc1 [Compound 5a, 4-(2-ethyl-3,4-dihydro-4-oxo-3-phenethylquinazolin-8-yl)-N-hydroxybenzamide] |  |  |  | ≥ 10 | ≥ 10 | 1 to 10 | ≥ 10 |
